This note sets out measurements from the Biogen ADME set (Fang et al. 2023).

A word on the aqueous solubility: it is the concentration that dissolves in the medium under given conditions. Low values mean a poorly soluble substance, high ones a readily soluble substance.

For this series the following is noted: for aqueous solubility: pH 6.8.

≈ marks a conversion by molar mass, not a printed value.

The compound `C[C@@H](Oc1cc(-c2cnn(C3CCNCC3)c2)cnc1N)c1c(Cl)ccc(F)c1Cl` registered an intrinsic clearance, human liver microsomes of 23.2 mL/min/kg; an intrinsic clearance, rat liver microsomes of 106 mL/min/kg; an aqueous solubility of 32.5 µg/mL (≈ 72.2 µM).

Take `Cc1nn(C)c(C)c1CNc1ccc(N2CCN(C)CC2)nc1`: the intrinsic clearance, human liver microsomes was at most 4.74 mL/min/kg and the intrinsic clearance, rat liver microsomes is at most 10.7 mL/min/kg.

For `Cc1nnc(N2CCCSCC2)c(C#N)c1C`, the MDR1-MDCK efflux ratio worked out at 0.646; the intrinsic clearance, human liver microsomes stood at 35.7 mL/min/kg; the intrinsic clearance, rat liver microsomes was found to be 1530 mL/min/kg; the aqueous solubility is 23.6 µg/mL (≈ 95.1 µM).

As for `Cc1cc(C(F)(F)F)nc(CCNC(=O)N(C)Cc2ccncc2C)n1`, the MDR1-MDCK efflux ratio amounted to 52; the intrinsic clearance, human liver microsomes came out at 198 mL/min/kg; the intrinsic clearance, rat liver microsomes worked out at 734 mL/min/kg.

For the compound `O=C(Nc1cccc2c(=O)cc(-c3nnn[nH]3)oc12)c1ccc(OCCCCc2ccccc2)cc1`, the fraction unbound, human plasma is 0.0383; the fraction unbound, rat plasma is 0.0592; the intrinsic clearance, human liver microsomes was found to be 21.1 mL/min/kg.

As for `Cn1ccc(CSc2n[nH]c(-c3cc(F)cc(F)c3)n2)n1`, the MDR1-MDCK efflux ratio came to 0.58; the intrinsic clearance, human liver microsomes amounted to 12.9 mL/min/kg; the intrinsic clearance, rat liver microsomes came to 131 mL/min/kg.

Compound `O=C1CCC(=O)N1Cc1nc(C23CC4CC(CC(C4)C2)C3)cs1` registered an intrinsic clearance, human liver microsomes of 105 mL/min/kg; an intrinsic clearance, rat liver microsomes of 1400 mL/min/kg; an aqueous solubility of 42.8 µg/mL (≈ 129 µM).

In the case of `CN(CCCC1CCCC1)Cc1cc(=O)[nH]c(=O)[nH]1`, the MDR1-MDCK efflux ratio came out at 0.839; the intrinsic clearance, human liver microsomes is 7.57 mL/min/kg; the intrinsic clearance, rat liver microsomes came to 165 mL/min/kg.

On to `Cn1cc(-c2ccc3nnc(C(F)(F)c4ccc5ncccc5c4)n3n2)cn1`, for which the MDR1-MDCK efflux ratio amounted to 9.46; the intrinsic clearance, human liver microsomes is at most 4.74 mL/min/kg; the intrinsic clearance, rat liver microsomes was 59.2 mL/min/kg; the aqueous solubility is 43 µg/mL (≈ 114 µM).

Take `COc1ccc2nc(C(=O)Nc3cnc4c(cnn4C(C)C)c3)ccc2c1`: the MDR1-MDCK efflux ratio is 0.464 and the aqueous solubility was found to be 0.15 µg/mL (≈ 0.415 µM).

Compound `NC1(c2ccc(-c3nc4ccn5c(=O)[nH]nc5c4cc3-c3ccccc3)cc2)CCC1` showed an intrinsic clearance, human liver microsomes of 14.7 mL/min/kg and an intrinsic clearance, rat liver microsomes of 17.1 mL/min/kg.

Regarding `Cc1cnc(-c2nc(NCc3cccnc3)ncc2-c2cc(C)no2)cn1`, the intrinsic clearance, human liver microsomes was found to be 17.1 mL/min/kg and the intrinsic clearance, rat liver microsomes worked out at 261 mL/min/kg.

Turning to `CNC(=O)c1cccc(Cn2nnc(-c3ccccc3Cl)n2)c1`, the MDR1-MDCK efflux ratio amounted to 9.33; the intrinsic clearance, human liver microsomes stood at 16.5 mL/min/kg; the intrinsic clearance, rat liver microsomes was found to be 775 mL/min/kg; the aqueous solubility is 22.9 µg/mL (≈ 70 µM).

`CCOc1ccc2c(c1)cc(CN1CCSCC1)c1nn(C)c(=O)n12` had an intrinsic clearance, human liver microsomes of 88.1 mL/min/kg and an intrinsic clearance, rat liver microsomes of 604 mL/min/kg.

As to `CN1C(=O)CCc2cc(NC(=O)C(C)(C)c3ccccc3F)ccc21`, the intrinsic clearance, human liver microsomes worked out at 29.3 mL/min/kg; the intrinsic clearance, rat liver microsomes amounted to 362 mL/min/kg; the aqueous solubility was 80.8 µg/mL (≈ 237 µM).

As to `CC(C)N(C)S(=O)(=O)N1CCC(CNC(=O)CCCn2cccn2)CC1`, the MDR1-MDCK efflux ratio was determined as 57.9; the intrinsic clearance, human liver microsomes was 16.3 mL/min/kg; the intrinsic clearance, rat liver microsomes worked out at 285 mL/min/kg.

Regarding `N#Cc1c(O)nc(SCc2cccc(F)c2F)nc1C1CC1`, the MDR1-MDCK efflux ratio came to 0.817 and the aqueous solubility was 2.1 µg/mL (≈ 6.58 µM).

`Cc1cc2nc(CCC(=O)N3CCc4n[nH]cc4C3)[nH]c2cc1C`: the MDR1-MDCK efflux ratio worked out at 24; the intrinsic clearance, human liver microsomes worked out at 17.4 mL/min/kg; the intrinsic clearance, rat liver microsomes was found to be 190 mL/min/kg.

For the compound `COc1ccc(CN(C)C(=O)C2(C#N)CCC2)cc1`, the aqueous solubility came out at 56.6 µg/mL (≈ 219 µM).

With `COc1ccc(OCC(=O)Nc2cccc(Cl)c2N2CCN(C(C)=O)CC2)cc1`, the MDR1-MDCK efflux ratio was found to be 1.09; the fraction unbound, human plasma came out at 0.0502; the intrinsic clearance, human liver microsomes was found to be 181 mL/min/kg; the intrinsic clearance, rat liver microsomes is 3350 mL/min/kg. The compound further yielded an aqueous solubility of 4.7 µg/mL (≈ 11.2 µM).

As for `Cc1cc(NC(=O)CN(C)c2c(F)cccc2F)on1`, the aqueous solubility is 69.4 µg/mL (≈ 247 µM).

Compound `CC(Oc1ccc(Cl)cc1)C(=O)N1CCC(n2c(=O)[nH]c3ccccc32)CC1` (stereo not given) came in with an intrinsic clearance, human liver microsomes of 36.2 mL/min/kg; an intrinsic clearance, rat liver microsomes of 525 mL/min/kg; an aqueous solubility of 28.9 µg/mL (≈ 72.4 µM).

As to `O=C1/C(=C2/CCCCCN2)C(Nc2ccccc2)=NN1c1ccccc1`, the MDR1-MDCK efflux ratio was 0.737 and the aqueous solubility was determined as 0.54 µg/mL (≈ 1.56 µM).

As for `Cc1csc(Nc2ccc(C#N)cc2)n1`, the MDR1-MDCK efflux ratio came out at 0.419; the intrinsic clearance, human liver microsomes came to 201 mL/min/kg; the intrinsic clearance, rat liver microsomes turned out to be 620 mL/min/kg; the aqueous solubility was found to be 38.2 µg/mL (≈ 177 µM).

In the case of `Cc1c(C(=O)Nc2ccc(N3CCC(N4CCOCC4)CC3)c(C#N)c2)cnn1-c1ccc(Cl)cc1`, the MDR1-MDCK efflux ratio is 11.5; the intrinsic clearance, human liver microsomes was found to be 80.7 mL/min/kg; the intrinsic clearance, rat liver microsomes stood at 294 mL/min/kg.

With `C/C=C/CC(=O)N1CCC(c2cc(Cc3ccccc3)n[nH]2)CC1`, the MDR1-MDCK efflux ratio is 2.41; the intrinsic clearance, human liver microsomes came out at 52 mL/min/kg; the intrinsic clearance, rat liver microsomes worked out at 771 mL/min/kg; the aqueous solubility turned out to be 24.1 µg/mL (≈ 74.5 µM).

`N#CC1(NC(=O)C2CCCCCC2)CC1` registered an intrinsic clearance, human liver microsomes of at most 4.74 mL/min/kg; an intrinsic clearance, rat liver microsomes of at most 10.7 mL/min/kg; an aqueous solubility of 33.4 µg/mL (≈ 162 µM).

`Cc1cccc(OC2CN(C(=O)Cn3c(C)nn(-c4ccccc4)c3=O)C2)c1`: the MDR1-MDCK efflux ratio came out at 0.993; the intrinsic clearance, human liver microsomes is 13.5 mL/min/kg; the intrinsic clearance, rat liver microsomes came out at 103 mL/min/kg; the aqueous solubility came to 5.11 µg/mL (≈ 13.5 µM).

In turn, `O=c1sn(-c2cccc3ccccc23)c(=O)n1Cc1ccccc1` gave an aqueous solubility of 0.4 µg/mL (≈ 1.2 µM).

`COc1cccc(C2NC(=O)NC(C)=C2C(=O)OCc2ccc3c(c2)OCO3)c1` (stereo not given) gave an aqueous solubility of 18 µg/mL (≈ 45.5 µM).

Consider `Cc1cccc2c(=O)n(CCC(=O)Nc3cc(C4CC4)n[nH]3)cnc12`, for which the aqueous solubility worked out at 8.26 µg/mL (≈ 24.5 µM).

Take `N#Cc1cc(CN2CCC(Nc3ncnc4sc(Cl)cc34)CC2)ccc1F`: the MDR1-MDCK efflux ratio was found to be 9.4; the intrinsic clearance, human liver microsomes was 123 mL/min/kg; the intrinsic clearance, rat liver microsomes came out at 1680 mL/min/kg.

Compound `Cc1cc(C)c2c(N)c(C(=O)NCc3ccc(Cl)cc3)sc2n1` had a fraction unbound, human plasma of 0.00426; a fraction unbound, rat plasma of 0.00652; an intrinsic clearance, human liver microsomes of 162 mL/min/kg; an intrinsic clearance, rat liver microsomes of 1540 mL/min/kg.

`COc1ccc(N2CCCN(CC3CCN(C(=O)C4CC4)CC3)CC2)cc1`: the MDR1-MDCK efflux ratio came to 1.11; the intrinsic clearance, human liver microsomes turned out to be 5.03 mL/min/kg; the intrinsic clearance, rat liver microsomes is 50.9 mL/min/kg; the aqueous solubility was 59.7 µg/mL (≈ 161 µM).

Turning to `CNC(=O)CC1CCN(c2ncccn2)CC1`, the MDR1-MDCK efflux ratio turned out to be 0.823; the intrinsic clearance, human liver microsomes was at most 4.74 mL/min/kg; the intrinsic clearance, rat liver microsomes was at most 10.7 mL/min/kg; the aqueous solubility is 50 µg/mL (≈ 213 µM).

Consider `O=C(Nc1cc(C2CC2)n[nH]1)C1CCN(C(=O)COc2ccccc2)CC1`, for which the aqueous solubility worked out at 42.5 µg/mL (≈ 115 µM).
